Test results: publication PMC6332393, “A Fungal α-Galactosidase from Tricholoma matsutake with Broad Substrate Specificity and Good Hydrolytic Activity on Raffinose Family Oligosaccharides” (Molecules, 2015)

Key:
α-galactosidase TMG [1] = tested on: T1, α-galactosidase TMG; assay: p-nitrophenol release at […] nm; Grafit fit; type: biochemical, Tricholoma matsutake; settings: pH 4.6, 50 °C (standard assay); 1-10 mM substrate; apparent Km; unit Mm [sic]
T1 construct: native, purified from fruiting bodies (Yunnan, China); monomer, 47 kDa by SDS-PAGE and gel filtration; inner peptides by LC-MS/MS GNVMVSLG, LLNMND, INVNDS; not cloned

α-galactosidase TMG [2] = tested on: T1, α-galactosidase TMG; assay: reducing sugar release ([…],5-dinitrosalicylic acid); Grafit fit; type: biochemical, Tricholoma matsutake; settings: 100 mM NaAc-HAc pH 4.6, 40 °C; 1-10 mM substrate; apparent Km; unit Mm [sic]

Km (α-galactosidase TMG [1]) [mM]	Km (α-galactosidase TMG [2]) [mM]	Compound
0.99	–	O=[N+]([O-])c1ccc(O[C@H]2O[C@H](CO)[C@H](O)[C@H](O)[C@H]2O)cc1 [pNPGal, 4-Nitrophenyl α-D-galactopyranoside]
–	3.7	OC[C@H]1O[C@H](OC[C@H]2O[C@H](O[C@]3(CO)O[C@H](CO)[C@@H](O)[C@@H]3O)[C@H](O)[C@@H](O)[C@@H]2O)[C@H](O)[C@@H](O)[C@H]1O [raffinose]
–	3.5	OC[C@H]1O[C@H](OC[C@H]2O[C@H](OC[C@H]3O[C@H](O[C@]4(CO)O[C@H](CO)[C@@H](O)[C@@H]4O)[C@H](O)[C@@H](O)[C@@H]3O)[C@H](O)[C@@H](O)[C@H]2O)[C@H](O)[C@@H](O)[C@H]1O [stachyose]
